Experimental data from US20100035259A1, “BIOMARKERS AND METHODS FOR DETERMINING SENSITIVITY TO VASCULAR ENDOTHELIAL GROWTH FACTOR RECEPTOR-2 MODULATORS” (Bristol-Myers Squibb Company, priority 2007, published 2010).

Assays:
mouse stromal tissues = experiment: Transcriptional profiling of GEO xenograft tumors on mouse 430A arrays (genes in mouse stromal tissues); type: in vivo; settings: for ESM1 level: after 2 hours treatment; for expression value of ESM1 in stromal tissue: treatment at 17 Days, in comparison with the control (FIG. 1)
Method: (§1) Tumors were propagated in nude mice as subcutaneous (sc) implants using human GEO colon tumor cell lines. Tumors were maintained in nude mice by serial passage. Treated animals were checked daily for treatment related toxicity/mortality. Each group of animals was weighed before the initiation of treatment (Wt1) and then again following the last treatment dose (Wt2). The difference in body weight (Wt2-Wt1) provided an overt measure of treatment-related toxicity. […] Tumor response was determined by measurement of tumors with a caliper twice a week, until the tumors reached a predetermined target size. Animals that were distributed to various treatment and control groups during the study were eventually sacrificed to obtain tumor and blood samples for genomic and protein analysis (Table 1).
(§2) Mouse GEO xenograft tumors, treated and non-treated, were surgically removed at appropriate time points and split into two halves. One half of the tumor was mixed in a vial of 10% formalin to be used for IHC and the other half was mixed in 1.0 ml of RNAlater™ RNA Stabilization Reagent (Ambion, Inc., Austin, Tex.) held at room temperature for 30-minutes then stored at −80° C. Total RNA was extracted from the tumor samples using the RNeasy Kit™ (Qiagen, Valencia Calif.). A least 1 μg total RNA with a 260/280 ratio >1.8 by spectrophotometry (DU640 UV, Beckman Coulter, Fullerton, Calif.) was required for transcriptional profiling. Briefly, the tumor samples were homogenized in a lysis-binding solution supplied by Qiagen. An equal volume of ethanol was mixed into each sample, the mixture was passed through the filter cartridges provided, and the rest of the extraction protocol was followed (Ambion). RNA yield and quality were assessed on a standard 1% agarose gel. […] RNA samples were stored at −80° C.
(§3) Transcriptional profiling was performed on the RNA obtained from the GEO xenograft tumor samples. The Affymetrix GeneChip system (Affymetrix, Santa Clara, Calif.) was used for hybridization and scanning of the human U133A and mouse 430A arrays. Generation of cRNA followed a standard T7 amplification protocol. Total RNA was reverse-transcribed with SuperScript II™ (Gibco, Carlsbad, Calif.) in the presence of T7-(dT)24 primer to generate first strand cDNA. A second-strand cDNA synthesis was performed in the presence of DNA Polymerase I, DNA ligase, and RNase H (Gibco). The resulting double-stranded cDNA was blunt-ended using T4 DNA polymerase. This double-stranded cDNA was then transcribed into cRNA in the presence of biotin-ribonucleotides using the BioArray High Yield RNA transcript labeling kit (Enzo Life Sciences, Farmingdale, N.Y.). The amplified, biotin-labeled cRNA was purified using Qiagen RNeasy™ columns (Qiagen Sciences), quantified and fragmented at 94° C. for 35 minutes in the presence of fragmentation buffer (1×). Fragmented cRNA was hybridized to the Affymetrix U113A and 430A arrays overnight at 42° C. The arrays were then placed in the fluidics stations for staining and washing as recommended by Affymetrix protocols. The chips were scanned and raw intensity values were generated for each probe on the arrays.
(§4) 20 HG-U133A2 chips were normalized by the RMA (Robust Multi-array Analysis) method as described by R. A. Irizarry et al., Nucleic Acids Res., February 15; 31(4):e15 (2003). The same normalization was done for the 20 Mouse430A2 chips.
(§5) Differentially expressed genes were defined as: (i) FDR (false discovery rate) q value less than 0.05 when comparing specific compound treatment at single time point to the control (no treatment) at 0 time point and (ii) fold change bigger than 2 (log2Foldchange>1 or <−1) when compared specific treatment to control.

[1] = tested on: human GEO colon tumor xenograft tumor tissues; experiment: Transcriptional profiling of GEO xenograft tumors on human U133A arrays (genes in tumor tissues); type: in vivo
Method: as §1, §2, §3, §4, §5

human GEO colon tumor = experiment: Tumor growth in GEO colon cancer model (caliper measurement); type: in vivo, nude mice; settings: compared to bevacizumab
Method: as §1

VEGFR-2 = VEGFR-2 (Homo sapiens, UniProt P35968); experiment: Inhibition of VEGFR-2; type: biochemical
VEGFR-2, sequence (P35968 20-1356, species assumed): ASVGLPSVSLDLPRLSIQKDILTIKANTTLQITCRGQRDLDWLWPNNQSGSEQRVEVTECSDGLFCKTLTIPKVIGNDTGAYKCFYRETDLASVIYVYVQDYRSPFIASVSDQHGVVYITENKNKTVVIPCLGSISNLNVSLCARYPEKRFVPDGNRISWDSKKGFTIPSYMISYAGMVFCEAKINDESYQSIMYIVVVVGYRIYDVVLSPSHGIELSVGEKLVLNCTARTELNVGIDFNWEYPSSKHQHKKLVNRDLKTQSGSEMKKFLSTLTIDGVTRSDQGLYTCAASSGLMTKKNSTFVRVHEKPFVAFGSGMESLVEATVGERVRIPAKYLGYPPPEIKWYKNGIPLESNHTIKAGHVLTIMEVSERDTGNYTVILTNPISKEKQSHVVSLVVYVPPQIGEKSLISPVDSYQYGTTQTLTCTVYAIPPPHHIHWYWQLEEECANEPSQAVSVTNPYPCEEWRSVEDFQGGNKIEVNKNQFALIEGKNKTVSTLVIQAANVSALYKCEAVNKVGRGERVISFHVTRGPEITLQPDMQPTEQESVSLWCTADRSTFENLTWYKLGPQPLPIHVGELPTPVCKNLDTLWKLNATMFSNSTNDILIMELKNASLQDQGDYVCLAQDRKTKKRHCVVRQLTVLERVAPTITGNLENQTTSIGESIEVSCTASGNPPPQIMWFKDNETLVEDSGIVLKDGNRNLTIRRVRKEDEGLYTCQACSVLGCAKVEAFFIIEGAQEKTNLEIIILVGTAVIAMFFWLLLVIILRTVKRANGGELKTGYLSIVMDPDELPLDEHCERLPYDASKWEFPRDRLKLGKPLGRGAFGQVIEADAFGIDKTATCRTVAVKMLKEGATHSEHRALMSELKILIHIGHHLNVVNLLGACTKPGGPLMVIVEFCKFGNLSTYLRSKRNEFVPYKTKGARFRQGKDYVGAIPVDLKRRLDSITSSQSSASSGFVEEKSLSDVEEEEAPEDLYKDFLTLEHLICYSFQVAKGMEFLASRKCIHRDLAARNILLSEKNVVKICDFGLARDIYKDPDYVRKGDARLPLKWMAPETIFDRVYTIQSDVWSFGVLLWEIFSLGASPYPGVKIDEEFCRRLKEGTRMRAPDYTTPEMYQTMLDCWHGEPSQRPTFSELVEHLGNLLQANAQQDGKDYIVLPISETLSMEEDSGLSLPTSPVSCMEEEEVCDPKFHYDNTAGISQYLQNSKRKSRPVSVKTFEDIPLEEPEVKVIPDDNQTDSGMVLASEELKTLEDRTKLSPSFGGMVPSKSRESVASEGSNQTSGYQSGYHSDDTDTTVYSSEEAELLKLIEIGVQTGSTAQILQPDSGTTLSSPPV

FGFR-1 = FGFR-1 (Homo sapiens, UniProt P11362); experiment: Inhibition of FGFR-1; type: biochemical
FGFR-1, sequence (P11362 22-822, species assumed): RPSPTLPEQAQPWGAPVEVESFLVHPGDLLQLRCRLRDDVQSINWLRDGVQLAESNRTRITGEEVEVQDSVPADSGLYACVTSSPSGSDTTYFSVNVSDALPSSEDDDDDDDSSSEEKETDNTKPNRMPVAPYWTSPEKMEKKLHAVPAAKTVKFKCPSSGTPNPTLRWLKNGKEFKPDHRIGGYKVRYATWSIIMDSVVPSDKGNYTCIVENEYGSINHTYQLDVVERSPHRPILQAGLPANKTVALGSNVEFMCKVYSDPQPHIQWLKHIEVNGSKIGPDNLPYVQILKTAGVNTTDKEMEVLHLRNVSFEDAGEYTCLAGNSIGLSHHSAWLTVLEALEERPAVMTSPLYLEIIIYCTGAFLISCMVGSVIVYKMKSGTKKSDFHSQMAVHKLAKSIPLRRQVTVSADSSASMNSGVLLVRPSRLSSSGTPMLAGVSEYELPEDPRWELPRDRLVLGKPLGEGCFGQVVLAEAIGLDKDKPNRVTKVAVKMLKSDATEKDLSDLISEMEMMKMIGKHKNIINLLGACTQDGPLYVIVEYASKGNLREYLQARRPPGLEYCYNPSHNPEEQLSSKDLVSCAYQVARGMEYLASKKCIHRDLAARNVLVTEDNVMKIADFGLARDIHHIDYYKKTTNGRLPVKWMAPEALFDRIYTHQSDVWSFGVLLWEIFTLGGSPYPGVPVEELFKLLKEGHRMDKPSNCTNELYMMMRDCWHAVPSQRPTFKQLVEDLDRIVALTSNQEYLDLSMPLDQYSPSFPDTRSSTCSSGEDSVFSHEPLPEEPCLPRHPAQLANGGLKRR

FGFR-2 = FGFR-2 (Homo sapiens, UniProt P21802); experiment: Inhibition of FGFR-2; type: biochemical
FGFR-2, sequence (P21802 22-821, species assumed): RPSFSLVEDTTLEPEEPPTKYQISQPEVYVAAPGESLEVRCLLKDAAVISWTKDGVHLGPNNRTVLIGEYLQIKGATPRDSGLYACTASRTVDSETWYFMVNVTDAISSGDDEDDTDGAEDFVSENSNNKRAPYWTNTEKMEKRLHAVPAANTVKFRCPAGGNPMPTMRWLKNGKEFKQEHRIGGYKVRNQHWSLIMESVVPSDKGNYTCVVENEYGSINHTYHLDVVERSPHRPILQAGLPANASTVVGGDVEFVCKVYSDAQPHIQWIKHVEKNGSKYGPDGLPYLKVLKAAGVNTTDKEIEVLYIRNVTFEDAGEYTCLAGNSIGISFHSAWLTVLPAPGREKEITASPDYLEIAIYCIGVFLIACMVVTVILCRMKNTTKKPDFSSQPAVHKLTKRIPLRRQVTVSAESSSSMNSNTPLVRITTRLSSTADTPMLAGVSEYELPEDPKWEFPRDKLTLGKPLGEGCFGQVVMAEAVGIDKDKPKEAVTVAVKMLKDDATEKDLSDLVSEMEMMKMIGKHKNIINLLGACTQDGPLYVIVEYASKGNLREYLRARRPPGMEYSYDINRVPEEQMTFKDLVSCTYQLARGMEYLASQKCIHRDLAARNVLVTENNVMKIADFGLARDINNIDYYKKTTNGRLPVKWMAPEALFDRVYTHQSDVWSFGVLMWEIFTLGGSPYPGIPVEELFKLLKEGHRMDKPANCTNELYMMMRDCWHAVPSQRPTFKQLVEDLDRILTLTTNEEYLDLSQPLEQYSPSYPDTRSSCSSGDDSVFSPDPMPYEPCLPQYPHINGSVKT

[2] = mouse stroma tissue, 17 days time point
[3] = tumor xenografts, after 17 days
[4] = xenograft tumor tissues, 17 days (FIG. 4)

## bevacizumab: AVASTIN (bevacizumab), indirectly inhibits the VEGFR-2 signaling pathway by preventing VEGF ligand binding [reference compound]
Mouse stromal tissues
  ESM1 level: decreasing trend
  expression value of ESM1 in stromal tissue: significantly decreases

## Cc1cc2c(F)c(Oc3ncnn4cc(OC[C@@H](C)OC(=O)[C@H](C)N)c(C)c34)ccc2[nH]1 [compound 1, [(1R), 2S]-2-Aminopropionic acid 2-[4-(4-fluoro-2-methyl-1H-indol-5-yloxy)-5-methylpyrrolo[2,1-f][1,2,4]triazin-6-yloxy]-1-methylethyl ester]
Mouse stromal tissues
  ESM1 level: decreasing trend
  expression value of ESM1 in stromal tissue: significantly decreases
Mouse stromal tissues; [2]
  expression level of S100A8: up-regulated
  expression level of S100A9: up-regulated
Mouse stromal tissues; upon treatment, 17 days
  CD14 expression: elevated
[1]; 3 probe sets (206576_s_at, 211889_x_at, 209498_at), treatment at 17 days
  CEACAM1 expression: significant increase
[1]; human xenograft tissue, 17 days, FDR q=0.002
  expression level of RAGE, up-regulated: 1.9 fold
[1]; treatment at 17 days, FDR q<0.008 (FIG. 4)
  AKAP7 inhibited: 3.5 fold
[1]; tumor tissue, 17 Days, significant FDR q values (FIG. 3)
  EMP1 up-regulated: 3.9 fold
[1]; [3]
  FGF-8 levels: elevated
  FGF-18 levels: elevated
  FGF-22 levels: elevated
  FGFR-2 levels: elevated
[1]; tumor xenografts, after 17 days, low expression
  FGF-2 levels: didn't change much
[1]; [4]
  Expression of Collagen 18: up-regulated
  VEGF expression: up-regulated
  VEGFB expression: up-regulated
Human GEO colon tumor
  ability to inhibit tumor growth: increase affect on the ability to inhibit tumor growth when compared to bevacizumab
VEGFR-2
  inhibition of VEGFR-2: potent inhibition
FGFR-1
  inhibition of FGFR-1: inhibition
FGFR-2
  inhibition of FGFR-2: inhibition
